Assays:
KP4 = test: Cell viability assay (CellTiter Glo), pancreatic ductal adenocarcinoma KP4; format: cell-based, human; settings: Homo sapiens, KP-4, 96 h, pancreatic cancer cell line KP4, 96 hours, CellTiter Glo; read-out: IC50 μM KP4
Summary of the method: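 KP4 cells seeded at 1,000–10,000 per well, treated 96 h with 9-point 3-fold dilutions from 30 μM top (4.6 nM–30 μM, duplicates; ≤0.25% DMSO). Viability by CellTiter Glo luminescence; % inhibition relative to DMSO-only wells, giving IC50, relative IC50 or % top inhibition.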

[1] = Whole blood stability, mouse; format: in vitro ADME
Text: (§1) The results of the assay on stability in blood and IC50 values for pancreatic cancer cell line KP4 are given below in Table 24.

[2] = Whole blood stability, human; format: in vitro ADME
Text: as §1

Structure (SMILES)	IC50 (KP4) [µM]	Whole Blood Stability % Remaining at 37° C. Mouse ([1]; 0 min) [%]	Whole Blood Stability % Remaining at 37° C. Mouse ([1]; 30 min) [%]	Whole Blood Stability % Remaining at 37° C. Mouse ([1]; 60 min) [%]	Whole Blood Stability % Remaining at 37° C. Human ([2]; 0 min) [%]	Whole Blood Stability % Remaining at 37° C. Human ([2]; 30 min) [%]	Whole Blood Stability % Remaining at 37° C. Human ([2]; 60 min) [%]
CN(C)C(=O)[C@H]1Cc2c([nH]c3ccc(Br)cc23)[C@H](c2ccc(C(=O)OC(C)(C)C)cc2)N1C(=O)CCl [Compound 61]	< 0.01	100.0	20.5	6.8	100.0	49.2	34.0
COC(=O)[C@H]1Cc2c([nH]c3ccccc23)[C@H](C23CC(C(=O)OC)(C2)C3)N1C(=O)CCl [Compound 62]	0.01 to 0.1	100.0	0.0	0.0	100.0	82.4	43.5
COC[C@H]1Cc2c([nH]c3ccccc23)[C@H](c2ccc(C(=O)OC(C)(C)C)cc2)N1C(=O)CCl [Compound 63]	0.01 to 0.1	100.0	97.0	108.4	100.0	113.1	70.7
COC[C@H]1Cc2c([nH]c3ccccc23)[C@@H](c2ccc(C(=O)OC(C)(C)C)cc2)N1C(=O)CCl [Compound 64]	0.1 to 0.5	100.0	0.0	0.0	100.0	44.3	14.7
CN(C)C(=O)[C@H]1Cc2c([nH]c3ccccc23)[C@H](c2ccc(C(=O)NC[Si](C)(C)C)cc2)N1C(=O)CCl [Compound 66]	0.01 to 0.1	100.0	69.8	26.8	100.0	79.1	45.8
CN(C)C(=O)[C@H]1Cc2c([nH]c3ccccc23)[C@H](c2ccc([Si](C)(C)C)cc2)N1C(=O)CCl [Compound 67]	0.01 to 0.1	100.0	38.7	13.3	100.0	56.8	37.3
CN(C)C(=O)[C@H]1Cc2c([nH]c3ccccc23)[C@@H](c2ccc([Si](C)(C)C)cc2)N1C(=O)CCl [Compound 67a]	> 1	100.0	52.4	18.2	100.0	35.5	15.5
CN(C)C(=O)[C@H]1Cc2c([nH]c3ccccc23)[C@H](c2ccc(S(=O)(=O)C(C)(C)C)cc2)N1C(=O)CCl [Compound 68]	0.01 to 0.1	100.0	65.0	36.9	100.0	36.8	20.6
CN(C)C(=O)[C@H]1Cc2c([nH]c3ccccc23)[C@H](c2ccc(S(=O)(=O)C3CCCC3)cc2)N1C(=O)CCl [Compound 69]	0.01 to 0.1	100.0	63.8	29.3	100.0	48.4	18.3
CN(C)C(=O)[C@H]1Cc2c([nH]c3ccccc23)[C@H](c2ccc(S(=O)(=O)C3CC3)cc2)N1C(=O)CCl [Compound 70]	0.1 to 0.5	100.0	63.3	36.6	100.0	46.0	23.8
CC(=O)Nc1ccc([C@H]2c3[nH]c4ccccc4c3C[C@H](C(=O)N(C)C)N2C(=O)CCl)cc1 [Compound 71]	> 1	100.0	90.4	75.5	100.0	80.4	59.3
CC(=O)Nc1ccc([C@@H]2c3[nH]c4ccccc4c3C[C@H](C(=O)N(C)C)N2C(=O)CCl)cc1 [Compound 71a]	> 1	100.0	76.5	43.8	100.0	54.9	25.7
COC(=O)c1ccc([C@H]2c3c(c4ccccc4n3C)C[C@H](C(=O)OC)N2C(=O)CCl)cc1 [Compound 72]	0.01 to 0.1	100.0	0.0	0.2	100.0	28.0	7.0
COC(=O)c1ccc([C@@H]2c3c(c4ccccc4n3C)C[C@H](C(=O)OC)N2C(=O)CCl)cc1 [Compound 73]	0.5 to 1	100.0	48.5	1.1	100.0	55.1	36.1
C=CCOC(=O)c1ccc([C@H]2c3[nH]c4ccccc4c3C[C@H](C(=O)OC)N2C(=O)CCl)cc1 [Compound 74]	< 0.01	100.0	0.0	0.0	100.0	58.2	29.0
COC(=O)[C@H]1Cc2c([nH]c3ccccc23)[C@H](c2ccc(C(=O)OCC3CC3)cc2)N1C(=O)CCl [Compound 75]	< 0.01	100.0	1.8	0.9	100.0	68.1	41.5
COC(=O)c1ccc([C@H]2c3[nH]c4ccccc4c3C[C@H](C)N2C(=O)CCl)cc1 [Compound 77]	< 0.01	100.0	0.5	0.0	100.0	54.1	27.5
COC(=O)[C@H]1Cc2c([nH]c3ccccc23)[C@H](c2ccc(NC(C)=O)cc2)N1C(=O)CCl [Compound 80]	0.01 to 0.1	100.0	72.3	58.6	100.0	60.9	49.6
COC(=O)[C@H]1Cc2c([nH]c3ccccc23)[C@H](c2ccc(C(=O)NCC3CC3)cc2)N1C(=O)CCl [Compound 81]	< 0.01	100.0	64.2	39.8	100.0	48.0	40.6
COC(=O)[C@H]1Cc2c([nH]c3ccccc23)[C@H](c2ccc(S(=O)(=O)NCC3CC3)cc2)N1C(=O)CCl [Compound 82]	< 0.01	100.0	43.1	21.7	100.0	47.6	34.5
COC(=O)[C@H]1Cc2c([nH]c3ccccc23)[C@H](c2ccc(NCC3CC3)cc2)N1C(=O)CCl [Compound 83]	< 0.01	100.0	66.1	30.0	100.0	78.5	52.9
COC(=O)[C@H]1Cc2c([nH]c3ccccc23)[C@H](c2ccc(C(=O)OCC3(C)CC3)cc2)N1C(=O)CCl [Compound 84]	< 0.01	100.0	0.0	0.0	100.0	87.7	58.3

Reference: US11098040B2, “Compounds and methods of use” (Ferro Therapeutics, Inc., priority 2018, dated 2021)
